Test results from ChEMBL document CHEMBL3217485, “Understanding and overcoming aminoglycoside resistance caused by N-6'-acetyltransferase” (Medchemcomm, 2012).
In brackets after ≈: the same amount, converted by molar mass. One block for each compound: values may come before it. Activity calls are given as the source filed them. No cut-off for these calls is given here. Where a SMILES comes first, the peptide text is derived from it. [ ]: non-standard residue; d: D form. Orn = NCCC[C@H](N)C(=O)O

Legend:
[1] = Binding affinity to biotinylated Escherichia coli 16S rRNA A-site
[2] = Activity at AAC(6')-li (unknown origin)
[3] = Ratio of Kcat to Km for AAC(6')-li (unknown origin)
Escherichia coli [4] = assay: Antibacterial activity against Escherichia coli ATCC 25922; format: functional
[5] = Binding affinity to AAC(6')-lb (unknown origin)
[6] = Inhibition of AAC(6')-li (unknown origin)
[7] = Inhibition of AAC(6')-le (unknown origin)
Aac(6')-Ii protein = Aac(6')-Ii protein (Enterococcus faecium, UniProt Q47764); assay: Inhibition of Enterococcus faecium AAC(6')-li
Escherichia coli [8] = assay: Antibacterial activity against kanamycin-resistant Escherichia coli K-12 R5 expressing AAC(6') enzyme; format: functional
Pseudomonas aeruginosa = assay: Antibacterial activity against kanamycin-resistant Pseudomonas aeruginosa GN315 expressing AAC(6') enzyme; format: functional

Aac(6')-Ii protein, sequence (Q47764 whole entry): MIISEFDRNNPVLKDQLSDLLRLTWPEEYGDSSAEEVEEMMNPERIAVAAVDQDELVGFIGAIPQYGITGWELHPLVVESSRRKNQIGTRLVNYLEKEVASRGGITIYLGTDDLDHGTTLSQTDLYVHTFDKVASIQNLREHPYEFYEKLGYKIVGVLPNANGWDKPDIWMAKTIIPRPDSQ

- Km [2]: 53.4 µM
- kcat [2]: 0.86 s⁻¹
- kcat/Km [3]: 1.6 ×10⁴ /M/s
- MIC (Escherichia coli [4]): 31 µM (≈ 24.8 µg/mL)
Compound: NC[C@H]1O[C@H](O[C@H]2[C@H](OCC(=O)NCCCNC(=O)CO[C@@H]3[C@@H](O)[C@H](N)C[C@H](N)[C@H]3O[C@H]3O[C@H](CN)[C@@H](O)[C@H](O)[C@H]3N)[C@@H](O)[C@H](N)C[C@@H]2N)[C@H](N)[C@@H](O)[C@@H]1O
- Kd [1]: 1.1 µM

- Kd [5]: 57 µM
Compound: Nc1cccc(C(=O)O[C@H]2C[C@H](N)C[C@@H]2N)c1

- IC50 [6]: 23 µM
- inhibition [7]: inactive
Compound: H-ILKKWPWWPWRRK-OH

- Ki [6]: 0.161 µM
Compound: CC(C)(COP(=O)(O)OP(=O)(O)OC[C@H]1O[C@@H](n2cnc3c(N)ncnc32)[C@H](O)[C@@H]1OP(=O)(O)O)[C@@H](O)C(=O)NCCC(=O)NCCSCCCC(=O)NC[C@H]1O[C@H](O[C@H]2[C@H](O)[C@@H](O)[C@H](N)C[C@@H]2N)[C@H](N)[C@@H](O)[C@@H]1O

- Ki (Aac(6')-Ii protein): ≥ 1000 µM
Compound: CC(C)(COC(=O)CCC(=O)O)[C@@H](O)C(=O)NCCC(=O)NCCSCC(=O)NC[C@H]1O[C@H](O[C@H]2[C@H](O)[C@@H](O)[C@H](N)C[C@@H]2N)[C@H](N)[C@@H](O)[C@@H]1O

- IC50 [6]: 24 µM
- inhibition [7]: inactive
Compound: H-KWKKFIKSLTKAAKTVVKTAKKPLIV-OH

- Ki (Aac(6')-Ii protein): ≥ 500 µM
Compound: CC(C)(CO)[C@@H](O)C(=O)NCCC(=O)NCCSCCCCCC(=O)NC[C@H]1O[C@H](O[C@H]2[C@H](O)[C@@H](O)[C@H](N)C[C@@H]2N)[C@H](N)[C@@H](O)[C@@H]1O

Compound: NC[C@@H]1O[C@@H](O[C@H]2[C@H](O)[C@@H](O[C@H]3O[C@H](CO)[C@@H](O)[C@H](N)[C@H]3O)[C@H](N)C[C@@H]2N)[C@@H](O)[C@H](O)[C@H]1O [KANAMYCIN A]
- MIC (Escherichia coli [8]): 25 µg/mL (≈ 51.6 µM)
- MIC (Pseudomonas aeruginosa): > 100 µg/mL

Compound: CC(C)C[C@@H]1NC(=O)[C@H](CCCN)NC(=O)[C@H](C(C)C)NC(=O)[C@@H]2CCCN2C(=O)[C@@H](Cc2ccccc2)NC(=O)[C@H](CC(C)C)NC(=O)[C@H](CCCN)NC(=O)[C@H](C(C)C)NC(=O)[C@@H]2CCCN2C(=O)[C@@H](Cc2ccccc2)NC1=O [GRAMICIDIN S] (cyclo(L[dF]PV[Orn]L[dF]PV[Orn]))
- inhibition [6]: inactive
- IC50 [7]: 14 µM

- Km [2]: > 500 µM
Compound: NCC(=O)NC[C@H]1O[C@H](O[C@H]2[C@H](O)[C@@H](O)[C@H](N)C[C@@H]2N)[C@H](N)[C@@H](O)[C@@H]1O

Compound: NC[C@H]1O[C@H](O[C@H]2[C@H](O)[C@@H](O)[C@H](N)C[C@@H]2N)[C@H](N)[C@@H](O)[C@@H]1O [NEAMINE]
- Kd [1]: 10 µM
- Km [2]: 5.82 µM
- kcat [2]: 0.419 s⁻¹
- kcat/Km [3]: 7.2 ×10⁴ /M/s
- MIC (Escherichia coli [4]): 50 µM (≈ 16.1 µg/mL)

- Km [2]: 83.6 µM
- kcat [2]: 1.89 s⁻¹
- kcat/Km [3]: 2.26 ×10⁴ /M/s
- MIC (Escherichia coli [4]): 125 µM (≈ 103 µg/mL)
Compound: NC[C@H]1O[C@H](O[C@H]2[C@H](OCC(=O)NCCCCCNC(=O)CO[C@@H]3[C@@H](O)[C@H](N)C[C@H](N)[C@H]3O[C@H]3O[C@H](CN)[C@@H](O)[C@H](O)[C@H]3N)[C@@H](O)[C@H](N)C[C@@H]2N)[C@H](N)[C@@H](O)[C@@H]1O
- Kd [1]: 0.8 µM

Compound: NC[C@@H]1CC[C@@H](N)[C@@H](O[C@H]2[C@H](O)[C@@H](O[C@H]3O[C@H](CO)[C@@H](O)[C@H](N)[C@H]3O)[C@H](N)C[C@@H]2N)O1 [DIBEKACIN]
- MIC (Escherichia coli [8]): 25 µg/mL (≈ 55.4 µM)
- MIC (Pseudomonas aeruginosa): > 100 µg/mL

- Kd [5]: 23 µM
Compound: N[C@H]1C[C@H](Oc2ccccc2[N+](=O)[O-])[C@@H](N)C1

- Ki [6]: 0.043 µM
Compound: CC(C)(COP(=O)(O)OP(=O)(O)OC[C@H]1O[C@@H](n2cnc3c(N)ncnc32)[C@H](O)[C@@H]1OP(=O)(O)O)[C@@H](O)C(=O)NCCC(=O)NCCSCCC(=O)NC[C@H]1O[C@H](O[C@H]2[C@H](O)[C@@H](O)[C@H](N)C[C@@H]2N)[C@H](N)[C@@H](O)[C@@H]1O

- Ki [6]: 8 µM
Compound: CC(C)(COP(=O)(O)OP(=O)(O)OC[C@H]1O[C@@H](n2cnc3c(N)ncnc32)[C@H](O)[C@@H]1OP(=O)(O)O)[C@@H](O)C(=O)NCCC(=O)NCCSCCCCC(=O)NC[C@H]1O[C@H](O[C@H]2[C@H](O)[C@@H](O)[C@H](N)C[C@@H]2N)[C@H](N)[C@@H](O)[C@@H]1O

Compound: CCNC[C@H]1O[C@H](O[C@H]2[C@H](O)[C@@H](O[C@@H]3O[C@@H](CO)[C@H](O)[C@@H](N)[C@@H]3O)[C@H](NC(=O)[C@@H](O)CCN)C[C@@H]2N)[C@H](O)[C@@H](O)[C@@H]1O
- MIC (Escherichia coli [8]): 1.56 µg/mL (≈ 2.54 µM)
- MIC (Pseudomonas aeruginosa): 100 µg/mL (≈ 163 µM)

- Km [2]: > 500 µM
Compound: N[C@H]1[C@@H](O[C@H]2[C@H](O)[C@@H](O)[C@H](N)C[C@@H]2N)O[C@H](CNC(=O)CO)[C@@H](O)[C@@H]1O

- Ki (Aac(6')-Ii protein): ≥ 500 µM
Compound: CC(C)(CO)[C@@H](O)C(=O)NCCC(=O)NCCSCC(=O)NC[C@H]1O[C@H](O[C@H]2[C@H](O)[C@@H](O)[C@H](N)C[C@@H]2N)[C@H](N)[C@@H](O)[C@@H]1O
